Consider three sequences from patent publication US7906618B2, “Peptide capable of binding to insulin-binding protein and adsorbent” (Kaneka Corporation, priority 2004, dated 2011).

Ends that are not written are not given here.

This assay concerns the target T1, Recombinant Human Insulin Receptor (28-956) (soluble insulin receptor, SIR) (Homo sapiens, UniProt P06213).
T1 construct: Recombinant Human Insulin Receptor (28-956); purchased GT/TECHNE Corp
The experiment in a line: BIAcore determination of peptide-SIR binding (peptide immobilized on sensor chip CM5, soluble insulin receptor as analyte). The following applies: sensor chip CM5, amine coupling, HBS-EP buffer, SIR 100 nM to 0.781 nM, flow 10 μl/min; for koff: read-out: Dissociation rate constant (peptide-SIR). The protocol:
The affinity for the soluble insulin receptor identified by SEQ ID NO:1 is compared by the method using BIAcore (BIAcore AB) (as described in Am. J. Physiol. 272 (1997) E1089-1098). Briefly, a solution of the soluble insulin receptor is brought into contact with the surface of the ready-made sensor chip with the peptide defined by SEQ ID NO:1 as immobilized thereon, and the interaction is measured.
The dissociation constant (KD) of the peptide P14 obtained in Example 3 was determined using BIAcore upgrade (Biacore AB) and the analysis software BIA evaluation version 3.0 (Biacore AB).
The ligand was immobilized on the sensor chip CM5 research grade (Biacore AB) by the amine coupling method. Thus, the peptide mentioned above was dissolved in 20 mM carbonate buffer (pH 8.5) (500 μg/ml), and 100 μl of the solution was passed through the flow cell at a flow rate of 5 μl/min. The amount of the peptide immobilized was 200 RU (resonance units).
Recombinant Human Insulin Receptor (28-956) (GT/TECHNE Corp.) was used as the analyte soluble insulin receptor (SIR). To 50 mg in a vial was added HBS-EP buffer (250 ml) for thorough dissolution ([…]), and the solution was 10-fold diluted to give a 100 nM solution. Eight concentration levels from 100 nM to 0.781 nM were prepared by subsequent repetitions of doubling dilution, and measurements were carried out using HBS-EP buffer (10 mM HEPES pH 7.4, 0.15M NaCl, 3 mM EDTA, 0.005% Surfactant P20) (Biacore AB) as a running solution; the rate of flow was 10 μl/min. A sensorgram was thus obtained.
The dissociation constant (KD) of the peptide P15 obtained in Example 6 was determined using BIAcore upgrade (Biacore AB) and the analysis software BIA evaluation version 3.0 (Biacore AB).
The ligand was immobilized on the sensor chip CM5 research grade (Biacore AB) by the amine coupling method. Thus, the peptide mentioned above was dissolved in 20 mM carbonate buffer (pH 8.5) (500 μg/ml), and 100 μl of the solution was passed through the flow cell at a flow rate of 5 μl/min. The amount of the peptide immobilized was 130 RU.
Recombinant Human Insulin Receptor (28-956) (GT/TECHNE Corp.) was used as the analyte SIR. Eight concentration levels from 100 nM to 0.781 nM were prepared by subsequent repetitions of doubling dilution, which was started from diluting 100 nM solution, and measurements were carried out using HBS-EP buffer as a running solution; the rate of flow was 10 μl/min. A sensorgram was thus obtained.
The dissociation constant (KD) of the peptide P21 obtained in Example 7 was determined using BIAcore upgrade (Biacore AB) and the analysis software BIA evaluation version 3.0 (Biacore AB).
The ligand was immobilized on the sensor chip CM5 research grade (Biacore AB) by the amine coupling method. Thus, the peptide mentioned above was dissolved in 20 mM carbonate buffer (pH 8.5) (500 μg/ml), and 100 μl of the solution was passed through the flow cell at a flow rate of 5 μl/min. The amount of the peptide immobilized was 270 RU.
Background: In SPR one partner is held on a chip, and binding of the other changes the refractive index at the surface.

T1 sequence (P06213 28-956): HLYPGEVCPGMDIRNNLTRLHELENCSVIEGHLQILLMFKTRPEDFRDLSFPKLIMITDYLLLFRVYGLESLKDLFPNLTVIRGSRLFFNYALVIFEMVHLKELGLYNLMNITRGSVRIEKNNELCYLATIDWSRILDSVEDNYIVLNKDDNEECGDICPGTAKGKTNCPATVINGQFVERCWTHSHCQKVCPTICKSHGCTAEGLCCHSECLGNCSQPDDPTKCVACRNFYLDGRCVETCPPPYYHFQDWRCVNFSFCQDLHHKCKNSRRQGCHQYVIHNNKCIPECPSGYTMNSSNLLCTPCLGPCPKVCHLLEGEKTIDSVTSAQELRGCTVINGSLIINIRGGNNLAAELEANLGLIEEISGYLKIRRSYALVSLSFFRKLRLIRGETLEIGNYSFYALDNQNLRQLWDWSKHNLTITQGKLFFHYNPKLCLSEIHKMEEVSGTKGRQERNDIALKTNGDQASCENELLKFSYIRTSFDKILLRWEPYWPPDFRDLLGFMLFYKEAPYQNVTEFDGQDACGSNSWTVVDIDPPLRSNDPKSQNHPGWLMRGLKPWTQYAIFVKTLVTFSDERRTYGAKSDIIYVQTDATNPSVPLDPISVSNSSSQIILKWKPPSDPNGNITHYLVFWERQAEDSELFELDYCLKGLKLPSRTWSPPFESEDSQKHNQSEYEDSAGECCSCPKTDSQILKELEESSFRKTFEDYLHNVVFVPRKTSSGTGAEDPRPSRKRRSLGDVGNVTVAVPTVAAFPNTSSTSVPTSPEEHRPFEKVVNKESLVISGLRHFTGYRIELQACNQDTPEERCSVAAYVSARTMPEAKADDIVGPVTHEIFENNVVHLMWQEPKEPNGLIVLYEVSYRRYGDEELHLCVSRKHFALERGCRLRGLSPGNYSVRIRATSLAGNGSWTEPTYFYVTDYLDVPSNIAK

Turning to “CASDIVEGLYIVLAER [Peptide P14, CASDIVEGLYIVLAER]”, the “Binding rate constant (peptide-SIR)” value is 9.7E+03 and the koff amounted to 0.015 s⁻¹.

As for “CQHILGSDIVEGIYL [Peptide P21, CQHILGSDIVEGIYL]”, the “Binding rate constant (peptide-SIR)” value is reported as 5.1E+04 and the koff was 0.6 s⁻¹.

As for CASDIVEGIYL [Peptide P15, CASDIVEGIYL], the “Binding rate constant (peptide-SIR)” value is reported as 8.6E+02 and the koff was 0.02 s⁻¹.
